In patent US4345938A, “Herbicidal 2-haloacetanilides” (Monsanto Company, priority 1980, dated 1982):
Like-named read-outs stand apart in the source and are kept apart here.

Legend:
Assay type in all cases: in vivo
Monochoria vaginalis [1] = experiment: Field transplant rice test, applied 0 DAT, MV; settings: Pontederia vaginalis, 0 h, read-out: Percent Inhibition, MV; for inhibition at 375 g/ha: 0.375 Kg/Ha; for inhibition at 750 g/ha: 0.75 Kg/Ha; for inhibition at 1500 g/ha: 1.5 Kg/Ha; for inhibition at 3000 g/ha: 3.0 Kg/Ha
Procedure: (§1) The test data in Table III for all compounds was obtained under identical test conditions. The weeds used in the tests herein have the following abbreviations in the tables: Echinochloa crus-galli (EC), Monochloria vaginalis (MV), Cyperus Serotinus (CS), Eleocharis Kuroguwai (EK) and Sagittaria trifolia (ST).
(§2) In further comparative tests, a preferred compound of this invention (Example 1) was tested in the field with prior art Compounds A-D. These tests were conducted under conditions reflecting herbicide application times generally favorable to all herbicides in the test. The timing of application of herbicides to transplant rice is very important, whether, as in some instances, prior to transplanting the rice; in other instances, at the time of transplanting or else after transplanting. Application times are conventionally referred to as "days before transplant" (DBT) or "days after transplant" ("DAT"). The field test data in Table IV was obtained from a test in which the herbicides were applied at the time of transplant, i.e., "0 DAT", with observations being made weekly up to six weeks after transplant ("WAT") beginning at two weeks after transplant; for illustrative and representative purposes, only the early, middle and late period observations, i.e., 2 WAT, 4 WAT and 6 WAT, are shown in Table IV. The data in Table IV is for rates of application common to all herbicides in the test, i.e., from 3.0 kg/ha (2.67 lb/A) down to 0.375 kg/ha (0.34 lb/A). All herbicides were applied at their actual or expected use rates, i.e., as granules containing 2.5% by weight herbicide for the compound of Example 1, Compounds B, C and D and 5.0% by weight for Compound A.

Rice = experiment: Field transplant rice test, applied 0 DAT, rice injury; settings: for inhibition at 375 g/ha / inhibition at 750 g/ha / inhibition at 1500 g/ha / inhibition at 3000 g/ha: Oryza sativa, 0 h, read-out: Percent Inhibition, Rice; for inhibition at 375 g/ha: 0.375 Kg/Ha; for inhibition at 750 g/ha: 0.75 Kg/Ha; for inhibition at 1500 g/ha: 1.5 Kg/Ha; for inhibition at 3000 g/ha: 3.0 Kg/Ha
Procedure: as §2

Echinochloa crus-galli [2] = experiment: Field transplant rice test, applied 0 DAT, EC; settings: 0 h, read-out: Percent Inhibition, EC; for inhibition at 375 g/ha: 0.375 Kg/Ha; for inhibition at 750 g/ha: 0.75 Kg/Ha; for inhibition at 1500 g/ha: 1.5 Kg/Ha; for inhibition at 3000 g/ha: 3.0 Kg/Ha
Procedure: as §1, §2

Monochoria vaginalis [3] = experiment: Greenhouse transplant rice test, MV; settings: Pontederia vaginalis, about 3 WAT, read-out: Percent Inhibition, MV
Excerpt: (§3) The test procedure used in this greenhouse test is as follows: Ray silt loam top soil containing about 0.05% by weight of krillium and sifted through a […] screen is fumigated about 5-10 days prior to use. Pots are then filled with said Ray silt loam soil to a level to allow for a 1 in. (2.54 cm) flooding depth. Rice plants (Bluebelle) of 2 to 3 weeks age are transplanted to the pots and bulbs or seeds of the test weeds also planted in the pots. The pots are then flooded and the test chemical applied to the surface of the flood water. The flood water is reduced to allow for germination of the Echinochloa crus-galli (barnyardgrass) seed and subsequently reflooded and maintained in that condition. Observations of percent inhibition using a scale of 0-100% are made about 3 weeks after transplant (WAT).
as §1

Echinochloa crus-galli [4] = experiment: Greenhouse transplant rice test, EC; settings: about 3 WAT, read-out: Percent Inhibition, EC
Excerpt: as §3, §1

Cyperus serotinus = experiment: Field transplant rice test, applied 9 DAT, CS; settings: for inhibition at 375 g/ha / inhibition at 750 g/ha / inhibition at 1500 g/ha / inhibition at 3000 g/ha: Cyperus serotinus, 216 h, read-out: Percent Inhibition, CS; for inhibition at 375 g/ha: 0.375 Kg/Ha; for inhibition at 750 g/ha: 0.75 Kg/Ha; for inhibition at 1500 g/ha: 1.5 Kg/Ha; for inhibition at 3000 g/ha: 3.0 Kg/Ha
Excerpt: In the discussion of data below, occasional reference is made to herbicide application rates symbolized as "GR15 " and "GR85 "; these rates are given in kilograms per hectare (kg/ha) which are convertible into pounds per acre (lbs/A) by dividing the kg/ha rate by 1.12.
A further guide to the effectiveness of a chemical as a selective herbicide is the "selectivity factor" ("SF") for a herbicide in given crops and weeds. The selectivity factor is a measure of the relative degree of crop safety and weed injury and is expressed in terms of the GR15 /GR85 ratio, i.e., the GR15 rate for the crop divided by the GR85 rate for the weed, both rates in kg/ha (lb/A.)
as §1, §2
In Table V are presented field data showing the relative performance of the compound of Example 1 and Compounds A-D applied 9 DAT, with observations being made weekly from 3 WAT to 7 WAT; again, for illustrative and representative purposes, only the early, middle and late period observations are reported in Table V, the herbicide rates and concentrations of active ingredients the same as is shown in Table IV.

Eleocharis kuroguwai = experiment: Field transplant rice test, applied 0 DAT, EK; settings: 0 h, read-out: Percent Inhibition, EK; for inhibition at 375 g/ha: 0.375 Kg/Ha; for inhibition at 750 g/ha: 0.75 Kg/Ha; for inhibition at 1500 g/ha: 1.5 Kg/Ha; for inhibition at 3000 g/ha: 3.0 Kg/Ha
Procedure: as §1, §2

## CCCCOc1cccc(CC)c1N(C)C(=O)CCl [Example 1, N-methyl-2'-n-butoxy-6'-ethyl-2-chloroacetanilide]
Monochoria vaginalis [1]; 2 WAT
  inhibition at 375 g/ha: 98%
  inhibition at 750 g/ha: 100%
  inhibition at 1500 g/ha: 100%
  inhibition at 3000 g/ha: 100%
Monochoria vaginalis [1]; 4 WAT
  inhibition at 375 g/ha: 100%
  inhibition at 750 g/ha: 99%
  inhibition at 1500 g/ha: 100%
  inhibition at 3000 g/ha: 100%
Monochoria vaginalis [1]; 6 WAT
  inhibition at 375 g/ha: 93%
  inhibition at 750 g/ha: 97%
  inhibition at 1500 g/ha: 100%
  inhibition at 3000 g/ha: 100%
Rice
  safety in rice: safe in rice at rates above 1.5 kg/ha and slightly less than 3.0 kg/ha
Rice; 2 WAT
  inhibition at 375 g/ha: 10%
  inhibition at 750 g/ha: 3%
  inhibition at 1500 g/ha: 5%
  inhibition at 3000 g/ha: 25%
Rice; 4 WAT
  inhibition at 375 g/ha: 7%
  inhibition at 750 g/ha: 0%
  inhibition at 1500 g/ha: 0%
  inhibition at 3000 g/ha: 22%
Rice; 6 WAT
  inhibition at 375 g/ha: 5%
  inhibition at 750 g/ha: 2%
  inhibition at 1500 g/ha: 2%
  inhibition at 3000 g/ha: 23%
Echinochloa crus-galli [2]; 2 WAT
  inhibition at 375 g/ha: 97%
  inhibition at 750 g/ha: 98%
  inhibition at 1500 g/ha: 100%
  inhibition at 3000 g/ha: 98%
Echinochloa crus-galli [2]; 4 WAT
  inhibition at 375 g/ha: 100%
  inhibition at 750 g/ha: 100%
  inhibition at 1500 g/ha: 100%
  inhibition at 3000 g/ha: 100%
Echinochloa crus-galli [2]; 6 WAT
  inhibition at 375 g/ha: 100%
  inhibition at 750 g/ha: 98%
  inhibition at 1500 g/ha: 100%
  inhibition at 3000 g/ha: 100%
Monochoria vaginalis [3]; 0.28 Kg/Ha
  inhibition at 280 g/ha: 100%
Monochoria vaginalis [3]; 0.56 Kg/Ha
  inhibition at 560 g/ha: 100%
Monochoria vaginalis [3]; 1.12 Kg/Ha
  inhibition at 1120 g/ha: 100%
Monochoria vaginalis [3]; 2.24 Kg/Ha
  inhibition at 2240 g/ha: 100%
Echinochloa crus-galli [4]; 0.28 Kg/Ha
  inhibition at 280 g/ha: 100%
Echinochloa crus-galli [4]; 0.56 Kg/Ha
  inhibition at 560 g/ha: 100%
Echinochloa crus-galli [4]; 1.12 Kg/Ha
  inhibition at 1120 g/ha: 100%
Echinochloa crus-galli [4]; 2.24 Kg/Ha
  inhibition at 2240 g/ha: 100%
Cyperus serotinus; 3 WAT
  inhibition at 375 g/ha: 100%
  inhibition at 750 g/ha: 93%
  inhibition at 1500 g/ha: 82%
  inhibition at 3000 g/ha: 100%
Cyperus serotinus; 5 WAT
  inhibition at 375 g/ha: 98%
  inhibition at 750 g/ha: 93%
  inhibition at 1500 g/ha: 100%
  inhibition at 3000 g/ha: 100%
Cyperus serotinus; 7 WAT
  inhibition at 375 g/ha: 97%
  inhibition at 750 g/ha: 95%
  inhibition at 1500 g/ha: 67%
  inhibition at 3000 g/ha: 100%
Cyperus serotinus; between 3 WAT and 7 WAT
  selectivity factor (GR15/GR85), CS in transplant rice: 16
Eleocharis kuroguwai; 2 WAT
  inhibition at 375 g/ha: 73%
  inhibition at 750 g/ha: 82%
  inhibition at 1500 g/ha: 87%
  inhibition at 3000 g/ha: 97%
Eleocharis kuroguwai; 4 WAT
  inhibition at 375 g/ha: 40%
  inhibition at 750 g/ha: 75%
  inhibition at 1500 g/ha: 83%
  inhibition at 3000 g/ha: 92%
Eleocharis kuroguwai; 6 WAT
  inhibition at 375 g/ha: 3%
  inhibition at 750 g/ha: 50%
  inhibition at 1500 g/ha: 37%
  inhibition at 3000 g/ha: 65%
